This passage reports IC50 results from patent publication US7427616B2, “Condensed pyridines and pyrimidines with tie2 (TEK) activity” (AstraZeneca AB, priority 2002, dated 2008).

This assay has as its target T1, Tie2 receptor (Homo sapiens, UniProt Q02763).
T1 construct: one can use natural cell lines or primary cells which are known to express the receptor of choice; endogenous in cells; host or cells: EA.hy926/B3 cells (HUVEC named as alternative)
The assay can be described thus: Cellular Tie2 autophosphorylation assay (Test (b)). It counts as cell-based. The settings on record: Ang1 ligand stimulated autophosphorylation of cellular Tie2 receptor, e.g. EA.hy926/B3 cells. The source says: b. Cellular Tie2 Autophosphorylation Assay
This assay is based on measuring the ability of compounds to inhibit autophosphorylation of the Tie2 receptor which normally leads to the production of “activated” receptor that in turn initiates the particular signal transduction pathways associated with the receptor function.
Autophosphorylation can be achieved by a number of means. It is known that expression of recombinant kinase domains in baculoviral systems can lead to the production of phosphorylated and activated receptor. […] In these cases the natural, external cell surface domain of the receptor has been replaced with that of a domain which is known to be readily dimerised via the addition of the appropriate ligand (e.g. TrkA-Tie2/NGF ligand (Marron, M. B., et al., 2000 Journal of Biological Chemistry: 275:39741-39746) or C-fms-Tie-1/CSF-1 ligand (Kontos, C. D., et al., 2002 Molecular and Cellular Biology: 22, 1704-1713). Thus when the chimaeric receptor expressed in a host cell line and the respective ligand is added, this induces autophosphorylation of the chimeric receptor's kinase domain. This approach has the advantage of often allowing a known (and often easily obtained) ligand to be used instead of having to identify and isolate the natural ligand for each receptor of interest. […]

T1 sequence (Q02763 23-1124): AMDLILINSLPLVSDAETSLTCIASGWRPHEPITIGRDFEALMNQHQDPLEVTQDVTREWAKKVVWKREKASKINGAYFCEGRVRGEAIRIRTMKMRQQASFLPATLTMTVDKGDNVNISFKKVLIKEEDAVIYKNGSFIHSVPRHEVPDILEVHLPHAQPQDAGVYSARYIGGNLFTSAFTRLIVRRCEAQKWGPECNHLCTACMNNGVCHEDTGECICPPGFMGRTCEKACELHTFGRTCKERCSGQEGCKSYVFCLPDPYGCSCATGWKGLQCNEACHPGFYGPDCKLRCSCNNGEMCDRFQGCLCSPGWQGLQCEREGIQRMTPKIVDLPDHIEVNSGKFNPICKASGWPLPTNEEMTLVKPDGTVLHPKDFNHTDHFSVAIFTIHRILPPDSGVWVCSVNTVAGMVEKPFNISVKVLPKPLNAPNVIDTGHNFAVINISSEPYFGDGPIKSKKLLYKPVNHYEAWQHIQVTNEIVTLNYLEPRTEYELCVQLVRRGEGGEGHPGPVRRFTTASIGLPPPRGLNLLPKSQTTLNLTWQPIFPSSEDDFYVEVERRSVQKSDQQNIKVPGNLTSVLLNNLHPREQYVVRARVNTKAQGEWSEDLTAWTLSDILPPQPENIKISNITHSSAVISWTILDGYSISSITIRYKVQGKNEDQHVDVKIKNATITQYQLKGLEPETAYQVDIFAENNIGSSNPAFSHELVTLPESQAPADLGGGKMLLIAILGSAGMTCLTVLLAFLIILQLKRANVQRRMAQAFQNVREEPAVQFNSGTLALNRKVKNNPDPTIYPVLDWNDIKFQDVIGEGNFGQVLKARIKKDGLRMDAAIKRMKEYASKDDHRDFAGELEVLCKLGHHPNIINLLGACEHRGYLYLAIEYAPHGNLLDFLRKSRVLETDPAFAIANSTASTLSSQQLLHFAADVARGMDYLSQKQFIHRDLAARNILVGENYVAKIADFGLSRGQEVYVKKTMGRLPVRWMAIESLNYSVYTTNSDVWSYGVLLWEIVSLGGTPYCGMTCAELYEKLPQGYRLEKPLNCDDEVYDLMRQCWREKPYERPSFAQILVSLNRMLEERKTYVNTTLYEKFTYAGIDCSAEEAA

For the molecule `Cn1cnc(-c2ccccc2)c1-c1nc2c(N)ncnc2s1` [Example 2, 2-(1-Methyl-4-phenyl-1H-imidazol-5-yl)[1,3]thiazolo[5,4-d]pyrimidin-7-amine], the 50% inhibitory concentration (IC50) stood at 2700 nM. `CSc1ncnc2sc(-c3c(-c4ccccc4)ncn3C)cc12` [Example 7, 6-(1-Methyl-4-phenyl-1H-imidazol-5-yl)-4-(methylthio)thieno[2,3d]pyrimidine] registered an IC50 of 2200 nM.
